Our source for the TGI and GI50 values is PubChem BioAssay (NCI).

Holding throughout (test): NCI-60 cell line screen, 48 h
In experiment [1] the test system is RPMI-8226 leukemia.
Experiment [2] relates to M14 melanoma.
Experiment [3] concerns SF-268 CNS.
Experiment [4] has as its system CAKI-1 renal.
Experiment [5] relates to UO-31 renal.
Experiment [6] deals with A549 NSCLC.
The subject of experiment [7] is OVCAR-4 ovarian.
Experiment [8] has as its system K-562 leukemia.
Experiment [9] relates to HOP-62 NSCLC.
Experiment [10] concerns SW-620 colon.

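Compound exposure: 48 hours, 5 concentrations, 96-well plates. GI50: concentration for 50% inhibition of growth. TGI: concentration producing complete growth inhibition.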 Where only a bound is given, the exact number is not on record here.

As to `Oc1ccc(CCc2cc(O)cc(O)c2)cc1`, the TGI in experiment [1], in experiment [2], in experiment [3], in [4], in experiment [5] and in [6] was more than 100 µM in each case. The TGI in experiment [7], in experiment [8], in experiment [9] and in [10] was more than 100 µM in each case.

As for `COC(=O)C1(Cc2ccccc2)Cc2ccccc2C1`, the TGI was 57.9 µM in experiment [1]; 34.8 µM in [2]; more than 100 µM in experiment [3]; 65.4 µM in [4]; 55.9 µM in [5]; more than 100 µM in [6]. Further, the TGI is more than 100 µM in experiment [7], 52.3 µM in experiment [8], more than 100 µM in [9] and more than 100 µM in [10].

Consider `COc1ccc2nc3cc(Cl)ccc3c(NCCNCCCNC(=O)c3cc(-c4ccccc4)nc4ccccc34)c2c1`, for which the TGI in experiment [1], in [2], in experiment [3], in experiment [4], in experiment [5] and in experiment [6] was more than 100 µM throughout. Further, the TGI in experiment [7], in [8], in [9] and in experiment [10] was more than 100 µM in each case.

Take `COc1ccc(C(=O)N2c3ccccc3Sc3ccccc32)c(C(F)(F)F)c1`: the GI50 in [1] is 0.595 µM; in [2], 0.343 µM; in [3], 3.04 µM; in [4], 0.692 µM; in experiment [5], 2.62 µM; in [6], 0.515 µM. Further, the GI50 in [7] is 1.98 µM; in [8], 0.349 µM; in [9] it was 0.684 µM; in [10] it was 0.425 µM. Also, the TGI in experiment [1], in experiment [2], in experiment [3], in experiment [4], in [5] and in [6] was more than 100 µM throughout. Moreover, the TGI in experiment [7], in experiment [8], in experiment [9] and in experiment [10] was more than 100 µM each time.

For the molecule `COc1cc(/C=C2/N=C(c3ccccc3)N(C3=NNC4(C(=O)N3)c3ccccc3-c3ccccc34)NC2=O)ccc1O`, the GI50 in experiment [1] is 50.2 µg/mL; in experiment [2], 34.7 µg/mL; in experiment [3], 27.5 µg/mL; in experiment [4], 22.4 µg/mL; in experiment [5], 33.4 µg/mL; in experiment [6] it was 15 µg/mL. For the same molecule, the GI50 in experiment [7] was 27.4 µg/mL; in [8], 48.6 µg/mL; in experiment [9], 23.4 µg/mL; in experiment [10], 31.1 µg/mL. Moreover, the TGI in experiment [1] was more than 150 µg/mL; in experiment [2] it was 105 µg/mL; in experiment [3], 66.7 µg/mL; in experiment [4], 75.1 µg/mL; in [5], 111 µg/mL; in experiment [6] it was 15 µg/mL. For the same molecule, the TGI in experiment [7] is 62.1 µg/mL; in [8], more than 150 µg/mL; in experiment [9] it was 56.2 µg/mL; in experiment [10] it was 73.6 µg/mL.

Take `CC(=O)N1CCN(C23OC4(N5CCN(C(C)=O)CC5)C5C6CC(C7C6C4C72)C53)CC1` (stereo not given): the TGI in experiment [1], in experiment [2], in experiment [3], in experiment [4], in experiment [5] and in experiment [6] was more than 100 µM in each case. For the same molecule, the TGI in experiment [7], in [8], in [9] and in experiment [10] was more than 100 µM in each case.

For the molecule `COc1cc(C2S/C(=C/c3ccccc3)C(=O)N2c2ccc(Cl)c(Cl)c2)cc(OC)c1OC` (stereo not given), the TGI in [1], in experiment [2], in experiment [3], in experiment [4], in experiment [5] and in experiment [6] was more than 100 µM throughout. In addition, the TGI in experiment [7], in [8], in experiment [9] and in experiment [10] was more than 100 µM throughout.

Turning to `O=C1/C(=C2\Sc3c(ccc(Cl)c3Cl)C2=O)Sc2c1ccc(Cl)c2Cl`, the TGI in [1], in experiment [2], in experiment [3], in [4], in experiment [5] and in experiment [6] was more than 100 µM in each case. Besides, the TGI in experiment [7], in [8], in experiment [9] and in experiment [10] was more than 100 µM in each case.

Turning to `CC(=O)c1cc2c(s1)C(=O)c1ccccc1C2=O`, the TGI was 26.9 µM in experiment [1]; 10.8 µM in experiment [2]; 16 µM in experiment [3]; 37 µM in [4]; 9.1 µM in experiment [5]; 14.6 µM in experiment [6]. In addition, the TGI in experiment [7] is 57 µM; in experiment [8], more than 100 µM; in experiment [9], more than 100 µM; in experiment [10], 9.67 µM.
